According to patent US20240115527A1, “CXCR1/CXCR2 INHIBITORS FOR USE IN TREATING MYELOFIBROSIS” (Icahn School of Medicine at Mount Sinai, priority 2020, published 2024):

Assays:
Assay type in all cases: cell-based, human
MF CD34+ cells = assay: Colony forming assay (CFU-GM) of cultured MF CD34+ cells with IL-8
Description: FIGS. 5A, 5B. 5C, 5D, and 5E illustrate that a CXCR1/CXCR2 inhibitor reverses effects of IL-8 on MF CD34^+ cell colony formation. […] CFU-GM=colony-forming unit-granulocyte-macrophage. FIGS. 5B and 5C illustrate that IL-8 increased CFU-GM colony formation by MF CD34^+ cells in a dose dependent fashion and that the effects of IL-8 were inhibited by treatment with Ladx. FIG. 5B. Normal cells. FIG. 5C. MF cells. […] Con=control. IL-8 concentrations increase from left to right. […] P values were as follows: w/o Ladx: Con vs IL-8—10 ng: 0.159332; Con vs IL-8—20 ng: 0.011976; Con vs IL-8—50 ng: 0.00262; Con vs IL-8—100 ng: 0.00042; w/ 10 μM Ladx: Con vs Ladx: 0.315782; IL-8—10 ng vs plus Ladx: 0.295851; IL-8—20 ng vs plus Ladx: 0.077726; IL-8—50 ng vs plus Ladx: 0.031355; IL-8—100 ng vs plus Ladx: 0.081595.

[1] = tested on: MF CD34+, CD41+ and CD33+ cells; assay: Proliferation and lineage differentiation of MF mononuclear cells cultured with IL-8, flow cytometry; conditions: ladarixin added to IL-8 culture, FIG. 4A
Protocol: To evaluate the effects of IL-8 on MF CD34^+ cells proliferation and lineage differentiation, MF mononuclear cells (MNC cells) were cultured with StemSpan™ Serum-Free Expansion Medium (SFEM) containing 20 ng/ml of stem cell factor (SCF), thrombopoietin (TPO), FL-3L and IL-3 with or without 50 ng/ml of IL-8. The cells were harvested after 3 days of incubation. The proportion of hematopoietic cells belonging to specific lineages were determined using flow cytometry.

normal donor CD34+ cells = assay: Proliferation and lineage differentiation of normal donor cells cultured with IL-8, flow cytometry; conditions: ladarixin added to IL-8 culture, FIG. 4A

SMILES: C[C@@H](C(=O)NS(C)(=O)=O)c1ccc(OS(=O)(=O)C(F)(F)F)cc1 [Ladarixin, R(-)-2-[(4′-trifluoromethanesulfonyloxy)phenyl]-N-methanesulfonyl propionamide]
- effect on IL-8 increased CFU-GM colony formation by MF samples with the highest expression of CXCR1/CXCR2 (MF CD34+ cells; 10 μM Ladx, FIG. 5E): corrected
- effect on IL-8 increased numbers of MF CFU-GM colonies (MF CD34+ cells; addition of ladarixin, FIG. 5C): blunted
- effect on IL-8 induced change of percentage of MF CD34+, CD41+ and CD33+ cells [1]: reversed the effects of IL-8
- effect on IL-8 induced change of normal CD34+, CD41+ and CD33+ cell populations (normal donor CD34+ cells): reversed the effects of IL-8
